Values joined by “and” are separate entries in the source; they are usually repeats but may differ in a detail not shown here. Identical values can stand only once.
Columns and labels:
Assay type in all cases: biochemical
[1] = target: T1, Brachypodium distachyon BdTyrA2, SEQ ID NO: 35, recombinant (Brachypodium distachyon, UniProt I1GWX1); assay: TyrA arogenate dehydrogenase kinetics and tyrosine inhibition (340 nm)
T1 sequence (I1GWX1 55-365): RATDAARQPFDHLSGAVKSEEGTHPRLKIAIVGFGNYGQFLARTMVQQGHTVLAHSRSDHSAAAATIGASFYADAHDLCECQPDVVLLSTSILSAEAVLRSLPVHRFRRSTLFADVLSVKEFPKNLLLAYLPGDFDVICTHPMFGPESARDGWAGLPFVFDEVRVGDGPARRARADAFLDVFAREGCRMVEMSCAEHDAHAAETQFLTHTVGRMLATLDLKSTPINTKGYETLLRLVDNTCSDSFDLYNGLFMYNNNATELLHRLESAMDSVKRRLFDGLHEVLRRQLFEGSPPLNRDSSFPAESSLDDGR
From the text: (§1) Next, to study the biochemical properties of grass TyrA enzymes, we generated and characterized recombinant purified TyrA proteins from Brachypodium (BdTyrA) and Sorghum (SbTyrA), two distantly related grass species^43, 44. Whereas TyrA enzymes from dicot plants are generally NADP^+-dependent arogenate dehydrogenases^20, 39, 45, except for NADP^+-prephenate dehydrogenases in the legume family^40, 46, previous reports on the substrate preference of grass TyrA enzymes are inconclusive^17, 19. […] NAD^+-prephenate dehydrogenase activity was absent in all cases, ruling out a significant contamination of the enzyme preparations with the TyrA enzyme from E. coli^47.48.

[2] = target: T2, Sorghum bicolor SbTyrAnc (non-canonical TyrA), SEQ ID NO: 43, recombinant (Sorghum bicolor, UniProt C5Z447); assay: as above
T2 construct: from cDNA
T2 sequence (C5Z447 56-382): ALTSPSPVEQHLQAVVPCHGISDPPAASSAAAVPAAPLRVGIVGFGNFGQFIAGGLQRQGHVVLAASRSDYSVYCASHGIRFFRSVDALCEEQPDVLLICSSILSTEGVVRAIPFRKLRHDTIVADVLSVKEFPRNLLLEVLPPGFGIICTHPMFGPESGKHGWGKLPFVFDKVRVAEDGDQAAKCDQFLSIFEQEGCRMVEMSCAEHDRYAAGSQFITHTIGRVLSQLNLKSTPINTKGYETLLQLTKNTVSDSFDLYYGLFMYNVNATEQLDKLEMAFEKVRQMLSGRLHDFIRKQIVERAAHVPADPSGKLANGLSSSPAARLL
From the text: as §1

[3] = target: Brachypodium distachyon BdDHS1b, SEQ ID NO: 3, recombinant (Brachypodium distachyon, UniProt I1H4W3); assay: DHS activity: kinetics and effector inhibition; conditions: read-out: inhibition at 0.5 mM
Chain of Brachypodium distachyon BdDHS1b, SEQ ID NO: 3, recombinant (I1H4W3 37-542): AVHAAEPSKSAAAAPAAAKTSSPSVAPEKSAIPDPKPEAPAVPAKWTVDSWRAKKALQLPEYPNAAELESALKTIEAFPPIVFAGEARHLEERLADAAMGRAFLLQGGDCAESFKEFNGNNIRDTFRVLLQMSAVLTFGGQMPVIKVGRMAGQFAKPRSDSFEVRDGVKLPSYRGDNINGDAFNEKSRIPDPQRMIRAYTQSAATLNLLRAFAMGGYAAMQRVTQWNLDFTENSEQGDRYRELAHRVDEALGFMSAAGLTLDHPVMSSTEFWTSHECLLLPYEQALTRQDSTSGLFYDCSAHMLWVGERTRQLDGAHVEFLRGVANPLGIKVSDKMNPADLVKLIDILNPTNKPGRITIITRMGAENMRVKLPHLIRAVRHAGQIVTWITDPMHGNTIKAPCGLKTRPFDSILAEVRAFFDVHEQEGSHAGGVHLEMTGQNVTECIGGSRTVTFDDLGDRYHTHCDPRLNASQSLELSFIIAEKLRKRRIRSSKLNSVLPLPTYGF
From the text: (§2) To examine their functional properties, the recombinant DHS enzymes of Brachypodium were produced and characterized in vitro.
(§3) As recent studies have shown that plant DHS enzymes are feedback-inhibited by multiple effector molecules^15, 16, we tested the effect of AAAs and another 14 related metabolites, including various intermediates of the shikimate pathway and the pathways downstream of AAAs, on Brachypodium DHS enzymes.
(§4) The DHS assay for UHPLC-MS quantification was set up using the same settings as described in the previous paragraph for the UV-based DHS assay, which guaranteed at least 10 minutes of reaction linearity. After a 10-minute incubation, 20 μL of the reactions (out of a total volume of 50 μL) were mixed into 80 μL of methanol, vortexed and transferred to vials for injection. Analysis of DAHP by UHPLC-MS was conducted using the same chromatographic settings as described for the UHPLC-MS analysis of soluble metabolites and compared with an authentic DAHP standard (Sta. Cruz biotechnology, cat. no. sc-216432).

[4] = target: Brachypodium distachyon BdDHS2, SEQ ID NO: 5, recombinant (Brachypodium distachyon, UniProt I1I809); assay: DHS activity: kinetics and effector inhibition; conditions: read-out: inhibition at 0.5 mM
Chain of Brachypodium distachyon BdDHS2, SEQ ID NO: 5, recombinant (I1I809 31-503): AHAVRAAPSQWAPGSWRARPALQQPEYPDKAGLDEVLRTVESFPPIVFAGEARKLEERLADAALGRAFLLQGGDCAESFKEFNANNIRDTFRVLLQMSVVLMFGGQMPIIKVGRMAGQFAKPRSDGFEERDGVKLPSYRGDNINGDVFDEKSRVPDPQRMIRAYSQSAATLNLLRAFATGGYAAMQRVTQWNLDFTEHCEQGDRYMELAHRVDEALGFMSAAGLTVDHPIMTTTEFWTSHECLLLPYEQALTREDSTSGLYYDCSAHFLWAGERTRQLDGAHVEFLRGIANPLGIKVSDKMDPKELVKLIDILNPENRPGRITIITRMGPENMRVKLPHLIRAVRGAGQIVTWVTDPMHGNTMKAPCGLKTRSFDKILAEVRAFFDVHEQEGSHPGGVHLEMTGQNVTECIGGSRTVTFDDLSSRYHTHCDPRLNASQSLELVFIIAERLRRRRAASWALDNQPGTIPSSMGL
From the text: as §2, §3, §4

SMILES: N[C@@H](Cc1ccc(O)cc1)C(=O)O [tyrosine]
- activity at 200 μM of tyrosine ([1]; 200 μM tyrosine): fully inactive
- IC50 ([1]; IC50 (tyrosine), 0.5 mM arogenate, 1 mM NADP^+): ~20 µM and 20 µM
- Ki ([1]; calculated from Km and IC50, competitive inhibition model): 8 ± 2 µM
- IC50 [2]: 406 ± 85 µM
- Ki [2]: 137 ± 44 µM
- inhibition at 500 µM [3]: ~10%
- inhibition at 500 µM [4]: ~10%

Reference: patent US20250115926A1, “DEREGULATED DHS AND TYRA ENZYMES OF GRASSES ENABLE EFFICIENT PRODUCTION OF BOTH TYROSINE AND PHENYLALANINE” (Wisconsin Alumni Research Foundation, priority 2023, published 2025)
